Source: patent publication US12473266B2, “Benzoxazole and related compounds useful as chaperone-mediated autophagy modulators” (Albert Einstein College of Medicine, priority 2018, dated 2025)

What was measured:
[1] = tested on: CMA activity (KFERQ-Dendra reporter) in NIH 3T3 fibroblasts; test: Photoconvertible CMA reporter (KFERQ-Dendra) assay, fluorescent puncta per cell; format: cell-based; details: NIH 3T3 KFERQ-Dendra; for effect on the number of fluorescent puncta per cell: result in words
Experimental: The photoactivatable CMA reporter assay was constructed by inserting a sequence of 21 amino acid of Ribonuclease A bearing the CMA-targeting motif in the N-terminus multicloning site of the photoactivatable protein mCherry1 or the photoswitchable protein Dendra 2.
NIH 3T3 fibroblasts were stably transduced with a photoconvertible CMA reporter, KFERQ-Dendra and were photoswitched by exposure to a […] (constant current) LED (Norlux, 405 nm) for 10 minutes and at the desired times fixed in 3% formaldehyde. Test cells are exposed to the indicated concentrations of the compounds, e.g. for 12 hours or 24 hours. Cells are imaged, e.g., by using high content microscopy (Operetta, Perkin Elmer) or by capturing images with an Axiovert 200 fluorescence microscope (Zeiss) with apotome and equipped with a 63×1.4 NA oil objective lens and red (ex. 570/30 nm, em. 615/30 nm), cyan (ex. 365/50 nm and em. 530/45 nm) and green (ex. 475/40 nm and em. 535/45 nm) filter sets (Chroma). Images were acquired with a high-resolution CCD camera after optical sectioning through the apotome. CMA activity is measured as the average number of fluorescent puncta (CMA active lysosomes) per cell. Values are expressed relative to values in untreated cells that were assigned an arbitrary value of 1 and are mean of >2,500 cells counted per condition. The S.D. in all instances was <0.01% mean value.

[2] = in vitro
Experimental: Microsome stability is determined in human, rat, and mouse, liver microsomes.
Compound at 3 μM final concentration along with 0.5 mg/mL microsome protein and 1 mM NADPH was incubated for 0, 5, 15, 30 and 60 min. As a negative control, test compound is incubated with microsomes in the absence of NADPH. Samples are quenched with methanol and centrifuged for 25 min at 2500 rpm to precipitate proteins. Supernatants are analyzed (N=3) by LC-MS./MS. The ln peak area ratio (compound peak area/internal standard peak area) is plotted against time and the gradient of the line determined the elimination rate constant [k=(−1)(slope)].
R^2 is the correlation coefficient of the linear regression for the determination of kinetic constant. T1/2 is the half life and CLint (mic) is the intrinsic clearance. CLint(liver)=CLint (mic)*mg microsomal protein/g liver weight*g liver weight/kg body weight. Liver weight/kg body weight is 20 g/kg for human.

Clc1ccc2nc(-c3ccc(-c4ccccc4)cc3)oc2c1 [Cmp. 1, 2-([1,1′-biphenyl]-4-yl)-6-chlorobenzo[d]oxazole]
CMA activity, average number of fluorescent puncta (CMA active lysosomes) per cell, relative to untreated cells (=1) ([1]; column 'Time' = 5): 2.43
CMA activity, average number of fluorescent puncta (CMA active lysosomes) per cell, relative to untreated cells (=1) ([1]; column 'Time' = 10): 2.16
CMA activity, average number of fluorescent puncta (CMA active lysosomes) per cell, relative to untreated cells (=1) ([1]; column 'Time' = 20): 2.98
CMA activity, average number of fluorescent puncta (CMA active lysosomes) per cell, relative to untreated cells (=1) ([1]; column 'Time' = 30): 3.22
CLint scaled at 3 μM ([2]; human, microsomes): < 8.6 mL/min/kg
half-life at 3 μM ([2]; human, microsomes): > 2.42 h
CLint(mic) ([2]; human, microsomes, 3 μM): < 9.6 µL/min/mg
Remaining (T = 60 min) ([2]; human, microsomes, 1 h, 3 μM): 83.4%

CC(=O)Nc1ccc(-c2nc3ccc(Cl)cc3o2)cc1 [Cmp. 2, N-(4-(6-chlorobenzo[d]oxazol-2-yl)phenyl)acetamide]
CMA activity, average number of fluorescent puncta (CMA active lysosomes) per cell, relative to untreated cells (=1) ([1]; column 'Time' = 5): 2.72
CMA activity, average number of fluorescent puncta (CMA active lysosomes) per cell, relative to untreated cells (=1) ([1]; column 'Time' = 10): 2.63
CMA activity, average number of fluorescent puncta (CMA active lysosomes) per cell, relative to untreated cells (=1) ([1]; column 'Time' = 20): 3.40
CMA activity, average number of fluorescent puncta (CMA active lysosomes) per cell, relative to untreated cells (=1) ([1]; column 'Time' = 30): 5.12

O=C(Nc1ccc(-c2nc3ccc(Cl)cc3o2)cc1)C(F)(F)F [Cmp. 3, N-(4-(6-chlorobenzo[d]oxazol-2-yl)phenyl)-2,2,2-trifluoroacetamide]
effect on the number of fluorescent puncta per cell [1]: positive effect

CC(C)CC(=O)Nc1ccc(-c2nc3ccc(Cl)cc3o2)cc1 [Cmp. 5, N-(4-(6-chlorobenzo[d]oxazol-2-yl)phenyl)-3-methylbutanamide]
effect on the number of fluorescent puncta per cell [1]: positive effect

O=C(Nc1ccc(-c2nc3ccc(Cl)cc3o2)cc1)c1ccc(F)cc1 [Cmp. 6, N-(4-(6-chlorobenzo[d]oxazol-2-yl)phenyl)-4-fluorobenzamide]
effect on the number of fluorescent puncta per cell [1]: positive effect

O=S(=O)(Nc1ccc(-c2nc3ccc(Cl)cc3o2)cc1)c1ccc(F)cc1 [Cmp. 7, N-(4-(6-chlorobenzo[d]oxazol-2-yl)phenyl)-4-fluorobenzenesulfonamide]
effect on the number of fluorescent puncta per cell [1]: positive effect

O=S(=O)(Nc1ccc(-c2nc3ccc(Cl)cc3o2)cc1)C(F)(F)F [Cmp. 8, N-(4-(6-chlorobenzo[d]oxazol-2-yl)phenyl)-1,1,1-trifluoromethanesulfonamide]
effect on the number of fluorescent puncta per cell [1]: positive effect

FC(F)(F)c1ccc(-c2ccc(-c3nc4ccc(Cl)cc4o3)cc2)cc1 [Cmp. 10, 6-chloro-2-(4′-trifluoromethyl-[1,1′-biphenyl]-4-yl)benzo[d]oxazole]
effect on the number of fluorescent puncta per cell [1]: positive effect

O=C(Nc1ccc(-c2nc3cc(Cl)ccc3o2)cc1)C(F)(F)F [Cmp. 13, N-(4-(5-chlorobenzo[d]oxazol-2-yl)phenyl)-2,2,2-trifluoroacetamide]
effect on the number of fluorescent puncta per cell [1]: positive effect

O=C(Nc1ccc(-c2ccc(-c3nc4cc(Cl)ccc4o3)cc2)cc1)C(F)(F)F [Cmp. 14, N-(4′-(5-chlorobenzo[d]oxazol-2-yl)-[1,1′-biphenyl]-4-yl)-2,2,2-trifluoroacetamide]
effect on the number of fluorescent puncta per cell [1]: positive effect

Clc1ccc2c(c1)OCC(c1ccc(-c3ccccc3)cc1)=N2 [Cmp. A]
CLint(mic) ([2]; human, microsomes, 3 μM): 36.6 µL/min/mg
Remaining (T = 60 min) ([2]; human, microsomes, 1 h, 3 μM): 30.1%

O=C(O)Cc1ccccc1Nc1c(Cl)cccc1Cl [Diclofenac]
Remaining (T = 60 min) ([2]; human, microsomes, 1 h, 3 μM): 6.8%

C[C@]12CC[C@H]3[C@@H](CCC4=CC(=O)CC[C@@]43C)[C@@H]1CC[C@@H]2O [Testosterone]
Remaining (T = 60 min) ([2]; human microsomes, 60 min incubation): 4.6%
